Reference: patent US8716242B2, “β-hairpin peptidomimetics” (priority 2009, dated 2014)
Numbered stars: 1 amine (or outer) side, 2 acyl side, 3 side chain; on linkers, the order of the positions; unused ones are H or OH. Bridge positions count the residues as written; N and C are the ends. Square brackets hold non-standard residues; d marks the D form. Side chains are listed from the residue outwards. Peptide text beside a SMILES is read from it. * marks the point of attachment. γGlu = O=C(O)[C@H](CCC(=O)[*:2])N[*:1]; Lauroyl = CCCCCCCCCCCC(=O)*; Dab = NCC[C@H](N)C(=O)O

How the values were obtained:
[1] = Plasma stability in human plasma; format: in vitro ADME; conditions: human plasma, 37° C.
Method in brief: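 Peptides (1 mM DMSO/H2O stock) were spiked into human or mouse plasma in triplicate and incubated at 37 °C, sampling from 0 to 1440 min. Samples were quenched in formic acid/acetonitrile and analysed by LC/MS MRM. Remaining percent of t=0 was calculated and T1/2 derived by trend fitting.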

in vivo = assay: in vivo; design: species or system male CD-1 mice; conditions: for AUC0-∞ dcor. / Cmax dcor.: mouse
Method: 2.7. Pharmacokinetic Study (PK)
Pharmacokinetic study after intravenous (i.v.) and subcutaneous (s.c.) administration was performed for the compounds of Ex. 17, Ex. 20, Ex. 25, Ex. 26, Ex. 28, and Ex. 29. […] The compounds of Ex. 17, Ex. 25, Ex. 26, Ex. 28, and Ex. 29 were administered i.v. and s.c. as a cassette whereas for the compound of Ex. 20a single i.v. and s.c. administration was accomplished.
30 grams (±20%) male CD-1 mice obtained from Janvier, France, were used in the study testing the cassette compounds. The vehicle, phosphate buffered saline containing 5% DMSO, was added to give a final concentration of 0.5 mg/mL of the compounds (i.v. route and s.c. route). The volume was 2 mL/kg i.v. and 10 mL/kg s.c. and the cassette compounds were injected to give a final intravenous dose of 1 mg/kg and an subcutaneous dose of 5 mg/kg. Approximately 500 μL of blood were removed from the opened heart at predetermined time intervals (5, 15, 30 min and 1, 2, 4, 8 and 12 hours for the i.v. study and 5, 15, 30 min and 1, 2, 4, 8, 12 and 24 hours for the s.c. study) and added to heparinized tubes. Plasma was removed from pelleted cells upon centrifugation and frozen at −80° C. prior to HPLC-MS analysis. For the compound of Ex. 20 30 grams (±20%) male CD-1 mice obtained from Charles River Laboratories Deutschland GmbH were used. The vehicle, phosphate buffered saline, was added to give a final concentration of 0.2 mg/mL of the compound (i.v. route) and 1 mg/mL (s.c. route). The volume was 5 mL/kg i.v. and s.c. and the compound was injected to give a final intravenous dose of 1 mg/kg and an subcutaneous dose of 5 mg/kg. Approximately 300-400 μL of blood was removed under light isoflurane anesthesia by cardiac puncture at predetermined time intervals (5, 15, 30 min and 1, 2, 3, 4, 6, 12 hours for the i.v. study and 15, min and 1, 2, 4, 6, 8, 12 and 24 hours for the s.c. study) and added to heparinized tubes. Plasma was removed from pelleted cells upon centrifugation and frozen at −80° C. prior to HPLC-MS analysis.
Preparation of the Plasma Calibration Samples
“Blank” mouse plasma from untreated animals was used. Aliquots of plasma of 0.2 mL each were spiked with 50 ng of propranolol (Internal Standard, IS), (sample preparation by solid phase extraction on OASIS® HLB cartridges [Waters]) and with known amounts of Ex. 20 in order to obtain 9 plasma calibration samples in the range 10-5000 nM. The OASIS® HLB cartridges were conditioned with 1 mL of methanol and then with 1 mL of 1% NH3 in water. Samples were then diluted with 700 μL of 1% NH3 in water and loaded. The plate was washed with 1 mL of methanol/1% NH3 in water 5/95 (v/v). Elution was performed using 1 mL of 0.1% TFA in methanol.
The plate containing eluates was introduced into the concentrator system and taken to dryness. The residues were dissolved in 100 μL of formic acid 0.1%/acetonitrile, 95/5 (v/v) and analysed in the HPLC/MS on a reverse phase analytical column (Jupiter C18, 50×2.0 mm, 5 μm, Phenomenex), using gradient elution (mobile phases A: 0.1% formic acid in water, B: acetonitrile; from 5% B to 100% B in 2 min.).
Preparation of Plasma Samples
Samples coming from animal treatments were pooled in order to obtain an appropriate volume for the extraction. If the total volume obtained was less than 0.2 mL the appropriate amount of “blank” mouse plasma was added in order to keep the matrix identical to the calibration curve. Samples were than spiked with IS and processed as described for the calibration curve.
Pharmacokinetic Evaluation
In order to perform PK analysis pooled plasma data (n=3 mice) was used. PK parameters were calculated by WinNonLin™ software version 5.2.1 (Pharsight—A Certara™ Company, Mountain View, Calif. 94041 USA) using non-compartmental analysis with a linear up/log down trapezoidal calculation method. For the terminal elimination phase at least 3 time points and a correlation coefficient greater than 0.85 was used. […]

SMILES: CCCCCCCCCCCC(=O)N[C@@H](CCC(=O)NCCCC[C@@H]1NC(=O)[C@H](Cc2ccc(O)cc2)NC(=O)[C@@H]2CSSC[C@H](NC(=O)[C@H](C)NC(=O)[C@H](Cc3c[nH]cn3)NC(=O)[C@H](Cc3ccc(O)cc3)NC(=O)[C@@H]3CCCN3C(=O)[C@H]3CCCN3C(=O)[C@H](CCCCN)NC1=O)C(=O)N[C@@H](CCCNC(=N)N)C(=O)N[C@@H](C)C(=O)N1CCC[C@@H]1C(=O)N[C@@H](CCN)C(=O)N[C@@H](CCCNC(=N)N)C(=O)N[C@@H](Cc1ccc(O)cc1)C(=O)N2)C(=O)O [Ex. 26] (cyclo(YHACRA[dP][Dab]RYCYK([γGlu-Lauroyl])K[dP]P); disulfide 4-11)
- remaining at 24 h, 10 μM ([1]; 1440 min, read-out: human pl. cpd left at 1440 min): 82%
- human pl. T1/2 ([1]; up to 1440 min): 24 h
- bioavailability (in vivo; male, CD-1, mouse): 142%
- AUC(0-inf) (in vivo; male, CD-1, mouse, iv, 1 mg/kg): 3400 ng·h/mL
- Cmax (in vivo; male, CD-1, mouse, iv, 1 mg/kg): 3470 ng/mL
- Tmax (in vivo; male, CD-1, mouse, iv, 1 mg/kg): 0.1 h
- half-life (in vivo; male, CD-1, mouse, iv, 1 mg/kg): 1.3 h
- level at 0.083 h (in vivo; male, CD-1, mouse, iv, 1 mg/kg): 3470 ng/mL
- level at 0.25 h (in vivo; male, CD-1, mouse, iv, 1 mg/kg): 2530 ng/mL
- level at 0.5 h (in vivo; male, CD-1, mouse, iv, 1 mg/kg): 1980 ng/mL
- level at 1 h (in vivo; male, CD-1, mouse, iv, 1 mg/kg): 1540 ng/mL
- level at 2 h (in vivo; male, CD-1, mouse, iv, 1 mg/kg): 219 ng/mL
- level at 4 h (in vivo; male, CD-1, mouse, iv, 1 mg/kg): 98 ng/mL
- level at 8 h (in vivo; male, CD-1, mouse, iv, 1 mg/kg): 10 ng/mL
- AUC(0-inf) (in vivo; male, CD-1, mouse, sc, 5 mg/kg): 24000 ng·h/mL
- Cmax (in vivo; male, CD-1, mouse, sc, 5 mg/kg): 3990 ng/mL
- Tmax (in vivo; male, CD-1, mouse, sc, 5 mg/kg): 2 h
- half-life (in vivo; male, CD-1, mouse, sc, 5 mg/kg): 2.9 h
- level at 0.25 h (in vivo; male, CD-1, mouse, sc, 5 mg/kg): 221 ng/mL
- level at 0.5 h (in vivo; male, CD-1, mouse, sc, 5 mg/kg): 779 ng/mL
- level at 1 h (in vivo; male, CD-1, mouse, sc, 5 mg/kg): 1750 ng/mL
- level at 2 h (in vivo; male, CD-1, mouse, sc, 5 mg/kg): 3990 ng/mL
- level at 4 h (in vivo; male, CD-1, mouse, sc, 5 mg/kg): 2530 ng/mL
- level at 8 h (in vivo; male, CD-1, mouse, sc, 5 mg/kg): 1600 ng/mL
- level at 12 h (in vivo; male, CD-1, mouse, sc, 5 mg/kg): 524 ng/mL
- level at 24 h (in vivo; male, CD-1, mouse, sc, 5 mg/kg): 23 ng/mL
- AUC0-∞ dcor. (in vivo; iv, 1 mg/kg): 3395.6 kg·ng·h/mg/mL
- Cmax dcor. (in vivo; iv, 1 mg/kg): 3467.0 kg·ng/mg/mL
- AUC0-∞ dcor. (in vivo; sc, 5 mg/kg): 4806.6 kg·ng·h/mg/mL
- Cmax dcor. (in vivo; sc, 5 mg/kg): 797.4 kg·ng/mg/mL
